Measured values reported in patent US10865207B2, “Compounds for imaging Tau protein aggregates” (AC IMMUNE S.A., priority 2016, dated 2020).

Tests used:
Tau = Tau (Homo sapiens, UniProt P10636); assay: Competition binding to Tau in human AD brain homogenate with 18F-labeled Tau binder; settings: for binding affinity for Tau (in words): IC50 determined in AD brain homogenate; for high Tau binding (grade): Table 2, fluorine-19 derivatives; as to high Tau binding (grade): key: −: poor; ∘: moderate; +: good; ++: very good; +++: excellent
Sequence of Tau (P10636 623-708 limits assumed): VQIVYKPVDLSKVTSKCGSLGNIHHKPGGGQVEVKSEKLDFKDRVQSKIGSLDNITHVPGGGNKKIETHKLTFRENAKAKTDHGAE
Description: 20 μg of human Alzheimer disease brain homogenate was incubated with a dilution series of each test compound (1000 to 0.06 nM) in the presence of 800 Bq of ^18F-labeled Tau binder. The samples were shaken at 110 rpm for 45 min at 37° C. Samples were then filtered through GF/B 96 well filter plates and washed twice with 300 μL assay buffer (PBS containing 0.1% BSA and 2% DMSO). Thereafter, filter plates were sealed and a Fuji Film Imaging Plate (BAS-SR2025) was placed on top. The imaging plate was analyzed after overnight exposition using a Fuji Film BAS-5000. Non-specific signal was determined with samples containing ^18F-labeled Tau-reference binder in the presence of assay buffer without brain substrate and competitor. […] The unblocked ^18F-labeled Tau-binder signal was defined as total binding. IC50 values were calculated by Prism V6 (GraphPad) setting total binding to 100%.

MAO A = target: T1, MAO A (Mus musculus, UniProt Q64133); assay: MAO A 18F-FEH competition assay in mouse brain homogenate; format: binding; settings: for low MAO A binding (grade): Table 2, IC50 in mouse brain homogenate
T1 construct: from tissue; host or cells: whole mouse brain homogenate
T1 sequence (Q64133 1-526): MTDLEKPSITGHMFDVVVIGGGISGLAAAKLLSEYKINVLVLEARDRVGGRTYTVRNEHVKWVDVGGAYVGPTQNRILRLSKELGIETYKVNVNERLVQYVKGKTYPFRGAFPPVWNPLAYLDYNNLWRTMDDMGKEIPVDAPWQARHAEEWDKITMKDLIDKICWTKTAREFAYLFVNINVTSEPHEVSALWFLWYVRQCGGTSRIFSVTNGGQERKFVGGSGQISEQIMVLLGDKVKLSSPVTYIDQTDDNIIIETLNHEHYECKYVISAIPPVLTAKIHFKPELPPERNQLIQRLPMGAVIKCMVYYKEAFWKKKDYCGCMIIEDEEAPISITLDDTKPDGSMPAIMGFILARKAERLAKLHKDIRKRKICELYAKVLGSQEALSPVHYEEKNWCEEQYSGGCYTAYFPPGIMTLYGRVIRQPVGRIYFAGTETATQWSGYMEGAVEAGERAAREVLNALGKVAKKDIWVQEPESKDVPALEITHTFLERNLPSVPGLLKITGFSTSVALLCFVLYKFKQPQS

[1] = PK studies in healthy mice (dynamic PET); format: in vivo, NMRI mice; parameters: Good brain uptake (grade) / Mouse PK Uptake (grade): key: −: poor; ∘: moderate; +: good; ++: very good; +++: excellent; settings: for Mouse PK Uptake (grade) / Mouse PK Washout (grade) / Mouse PK De-fluorination (grade): Table 2; for bone uptake in shoulder joint at 60 min (de-fluorination) / peak uptake in brain (tracer uptake in healthy mice after iv injection) / ratio of uptake peak/30 min (washout from healthy brain): healthy mice; for bone uptake in shoulder joint at 60 min (de-fluorination): after iv injection; for peak uptake in brain (tracer uptake in healthy mice after iv injection): PET; for ratio of uptake peak/30 min (washout from healthy brain): Table 1: ratio of uptake at 2 min and 30 min; as to Fast washout from healthy brain (grade): key: −: poor; ∘: moderate; +: good; ++: very good; +++: excellent; as to Mouse PK De-fluorination (grade): key: −: poor; ∘: moderate; +: good; ++: very good; +++: excellent; as to Mouse PK Washout (grade): key: −: poor; ∘: moderate; +: good; ++: very good; +++: excellent
Description: NMRI mice (weight range 25-35 g) were injected intravenously with the ^18F-labeled compounds. Up to 150 μL of 1×PBS solution with 10%-15% EtOH or dilution medium ([…]) containing the ^18F-labeled compound (2-10 MBq) were injected. Anesthesia with isoflurane was induced before injection of the tracer and maintained during the image acquisition period. PET scans were performed using a SIEMENS INVEON small animal PET/CT scanner (Siemens, Knoxville, Tenn.). PET acquisition was started immediately before the radioactive dose was injected into the animal through the tail vein. Images were generated as dynamic scans for 60 minutes.
The peak uptake in the brain was set to 100% and washout curves were generated to evaluate the clearance of the activity from the normal brain (FIG. 2).

Compound	binding affinity for Tau (in words) (Tau)	high Tau binding (grade) (Tau)	low MAO A binding (grade) (MAO A)	Mouse PK Uptake (grade) [1]	Mouse PK Washout (grade) [1]	bone uptake in shoulder joint at 60 min (de-fluorination) [1]	peak uptake in brain (tracer uptake in healthy mice after iv injection) [1]	ratio of uptake peak/30 min (washout from healthy brain) [1]	Mouse PK De-fluorination (grade) [1]	Fast washout from healthy brain (grade) ([1]; Table 1)	Good brain uptake (grade) ([1]; Table 1)	Low or minor de-fluorination (grade) ([1]; Table 1)	De-fluorination in mice (in words) ([1]; mouse, in vivo)	selectivity over MAO A (in words) (MAO A)	Low retention in healthy brain (grade) ([1]; Table 1)
Fc1ccncc1-c1ccc2c(n1)[nH]c1ccncc12 [Comparative Example 6 (F-6)]	poor	−	+++	+++	++	(4.8% ID/g)	(8.2% ID/g)	(14.5)							
Fc1cncc(-c2ccc3c(n2)[nH]c2ccncc23)c1 [Comparative Example 5 (F-5)]	inferior	++	+++	++	+	(2.9% ID/g)	(5.3% ID/g)	(9.6)	+						
Fc1cccnc1-c1ccc2c(n1)[nH]c1ccncc12 [Comparative Example 10 (F-10)]	poor	−	+++		−	(6.2% ID/g)	(2.1% ID/g)	(3.6)	−						
Fc1cccc(-c2ccc3c(n2)[nH]c2ccncc23)n1 [Comparative Example 7 (F-7)]	inferior	++	+	+++		(11.1% ID/g)	(8.5% ID/g)	(7.0)	−					Inferior	

Next, values leading:

binding affinity for Tau (in words) (Tau)	high Tau binding (grade) (Tau)	low MAO A binding (grade) (MAO A)	Mouse PK Uptake (grade) [1]	Mouse PK Washout (grade) [1]	bone uptake in shoulder joint at 60 min (de-fluorination) [1]	peak uptake in brain (tracer uptake in healthy mice after iv injection) [1]	ratio of uptake peak/30 min (washout from healthy brain) [1]	Mouse PK De-fluorination (grade) [1]	Fast washout from healthy brain (grade) ([1]; Table 1)	Good brain uptake (grade) ([1]; Table 1)	Low or minor de-fluorination (grade) ([1]; Table 1)	De-fluorination in mice (in words) ([1]; mouse, in vivo)	selectivity over MAO A (in words) (MAO A)	Low retention in healthy brain (grade) ([1]; Table 1)	Compound
									+	++	−	De-fluorination in mice was found			[18F]c1ccc(-c2ccc3c(n2)[nH]c2ccncc23)cn1 [Compound ^18F-2]
	+++												Inferior		Fc1ccc(-c2ccc3c(n2)[nH]c2ccncc23)nc1 [Comparative Example 8 (F-8)]
inferior	++	+++													Fc1ccnc(-c2ccc3c(n2)[nH]c2ccncc23)c1 [Comparative Example 9 (F-9)]
										++				−	[18F]c1ccc(-c2ccc3c(c2)[nH]c2ccncc23)cn1 [Compound ^18F-1]
	+++	+	++	++	(6.2% ID/g)	(5.7% ID/g)	(10.9)	−					Inferior		Fc1ccc(-c2ccc3c(n2)[nH]c2ccncc23)cn1 [Compound F-2]
